{"source": "patent US20110295037A1", "about": "“PROCESSES FOR PREPARING CINACALCET HYDROCHLORIDE AND POLYMORPHIC FORMS THEREOF” (MEDICHEM, S.A., priority 2006, published 2011)", "assay": "Particle size distribution (Malvern Mastersizer S, by volume)", "format": "physicochemical", "details": "hydrochloride", "description": "VI. Particle Size Distribution Method\nThe particle size for cinacalcet hydrochloride was measured using a Malvern Mastersizer S particle size analyzer with an MS1 Small Volume Sample Dispersion Unit stirred cell. A 300RF mm lens and a beam length of 2.4 mm were used. Samples for analysis were prepared by dispersing a weighed amount of cinacalcet hydrochloride (approximately 60 mg) in 20 mL of sample dispersant, previously prepared by dilution of 1.5 g of Soybean Lecithin to 200 mL with Isopar G. The suspension was delivered drop-wise to a background corrected measuring cell previously filled with dispersant (Isopar G) until the obscuration reached the desired level. Volume distributions were obtained for three times. After completing the measurements, the sample cell was emptied and cleaned, refilled with suspending medium, and the sampling procedure repeated again. For characterization, the values of D10, D50 and D90 (by volume) were specifically listed, each one being the mean of the nine values available for each characterization parameter."}
{"smiles": "C[C@@H](NCCCc1cccc(C(F)(F)F)c1)c1cccc2ccccc12.Cl", "note": "[cinacalcet hydrochloride, N-[1-(R)-(−)-(1-naphthyl)ethyl]-3-[3-(trifluoromethyl)phenyl]-1-aminopropane hydrochloride]", "values": [{"measurement": "particle size distribution D90 (v)", "setting": "after milling", "value": 24, "unit": "μm"}, {"measurement": "particle size distribution D90 (v)", "setting": "after recrystallization from heptane-isobutylacetate", "value": 263, "unit": "μm"}, {"measurement": "particle size distribution D90 (v)", "setting": "after recrystallization from isobutylacetate", "value": 47, "unit": "μm"}]}
